Reference: patent US8343959B2, “N-phenyl-(piperazinyl or homopiperazinyl)-benzenesulfonamide or benzenesulfonyl-phenyl-(piperazine or homopiperazine) compounds suitable for treating disorders that respond to modulation of the serotonin 5-HT6 receptor” (Abbott GmbH & Co. KG, priority 2009, dated 2013)
Where a name gives a salt, the structure may show the parent alone.

The molecules below were run against T1, h-5-HT6 receptor (Homo sapiens, UniProt P50406) (assay: 5-HT6 receptor binding assay (displacement of [3H]-LSD)). Conditions: not given.
T1 construct: expressed in transfected cells
T1 sequence (P50406 whole entry): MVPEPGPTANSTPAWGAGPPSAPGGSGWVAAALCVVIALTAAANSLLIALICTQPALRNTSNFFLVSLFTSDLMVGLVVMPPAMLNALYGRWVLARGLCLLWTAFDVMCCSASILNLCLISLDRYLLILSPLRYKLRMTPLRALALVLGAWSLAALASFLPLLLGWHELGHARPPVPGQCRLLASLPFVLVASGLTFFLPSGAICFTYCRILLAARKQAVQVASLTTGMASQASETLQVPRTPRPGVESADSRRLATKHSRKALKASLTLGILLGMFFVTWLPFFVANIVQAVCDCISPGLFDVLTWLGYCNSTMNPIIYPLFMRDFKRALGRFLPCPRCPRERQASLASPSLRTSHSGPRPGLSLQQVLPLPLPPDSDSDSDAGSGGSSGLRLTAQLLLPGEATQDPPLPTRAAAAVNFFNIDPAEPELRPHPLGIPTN
Protocol: Displacement of Radioligands Binding to The Following Cloned Human Receptors
Cells from stable clonal cell lines expressing the corresponding receptor (5-HT6, α1-adrenergic, dopamine D2 or histamine H1 receptors) were washed with PBS (w/o Ca^++, Mg^++) and harvested in PBS with 0.02% EDTA. The cells were collected by centrifugation at 500 g for 10 min. at 4° C., washed with PBS and centrifuged (500 g, 10 min. 4° C.). The pellets were stored at −80° C. until use. For membrane preparation, the thawed cell pellet was resuspended in ice-cold sucrose buffer (0.25 M sucrose, 10 mM Hepes (pH 7.4), 1 mM Phenylmethylsulfonyl fluoride (PMSF) in DMSO, 5 μg/ml Pepstatin-A, 3 mM EDTA, 0.025% Bacitracin) and homogenized with a Branson Sonifier W-250 (Settings: Timer 4; Output Control 3; Duty Cycle constant; 2 to 3 cycles). Cell disruption was checked with the aid of a microscope. Remaining unbroken cells were pelleted at 1.000 g for 10 min. at 4° C. The sucrose buffer supernatant was then centrifuged at 60.000 g for 1 h at 4° C. (Beckman Ultrazentrifuge XL 80). The pellet was resuspended in 30 ml ice-cold Tris buffer (20 mM TRIS (pH 7.4), 5 μg/ml Pepstatin A, 0.1 mM PMSF, 3 mM EDTA) by pipetting through a 10 ml serological pipet and centrifuged for 1 h at 4° C. at 60.000 g. A final resuspension was performed in a small volume of ice-cold Tris buffer (see above) by pressing through a serological pipet followed by ultrasonic treatment with a Branson Sonifier W-250 (Settings: Timer 1; Output Control 3; Duty Cycle constant; 1 cycle). Protein concentration was determined (BCA-Kit; Pierce) and aliquots stored at −80° C. or in liquid nitrogen for long-term storage.
All receptor binding experiments were carried out in the corresponding assay buffer in a total volume of 200 μl in the presence of various concentrations of test compound (10^−5 M to 10^−9 M, tenfold serial dilution, duplicate determinations). The assays were terminated by filtration on polyethylenimine (PEI 0.1% or 0.3%) presoaked Packard Unifilter Plates (GF/C or GF/B) with a Tomtec Machin U 96 well-plate harvester. After the plates had been dried for 2 h at 55° C. in a drying chamber scintillation cocktail (BetaPlate Scint; PerkinElmer) was added. Radioactivity was measured in a Microbeta Trilux two hours after the addition of the scintillation mixture. Data derived from liquid scintillation counting were analysed by iterative non-linear regression analysis with the use of the Statistical Analysis System (SAS): a program similar to “LIGAND” as described by Munson and Rodbard (Analytical Biochemistry 107, 220-239 (1980).
HEK293 cells stably expressing the h-5-HT6 receptor (NCBI Reference Sequence XM 001435) were cultured in RPMI1640 medium supplemented with 25 mM HEPES, 10% fetal calf serum and 1-2 mM glutamine. The membrane preparation was performed as described in section 1. […] Non-specific binding was defined with 1 μM methiothepin. The binding reaction was carried out for 3.5 h at room temperature. During the incubation, the plates were shaken on a plate shaker at 100 rpm and terminated by filtration on Packard Unifilter GF/C (0.1% PEI) plates, followed by 2 wash cycles with ice-cold 50 mM Tris-HCl, 5 mM CaCl2.
Data derived from liquid scintillation counting were analyzed by iterative non-linear regression analysis with the use of the Statistical Analysis System (SAS): a program similar to “LIGAND” as described by Munson and Rodbard (Anal. Biochem. 1980, 107, 220-239). Fitting was performed according to formulae described by Feldman (Anal. Biochem. 1972, 48, 317-338). IC50, nH and Ki values were expressed as geometrical mean.
Molecule Cc1ccc(S(=O)(=O)Nc2cccc(OC(F)F)c2)cc1N1CCNCC1 [Example 1, N-(3-Difluoromethoxy-phenyl)-4-methyl-3-piperazin-1-yl-benzenesulfonamide hydrochloride] has a Ki of less than 10 nM. Cc1ccc(S(=O)(=O)Nc2ccc(OC(F)F)cc2)cc1N1CCNCC1 [Example 7, N-(4-Difluoromethoxy-phenyl)-4-methyl-3-piperazin-1-yl-benzenesulfonamide hydrochloride] gave a Ki of less than 50 nM. Cc1ccc(S(=O)(=O)Nc2ccccc2OC(F)F)cc1N1CCNCC1 [Example 17, N-(2-Difluoromethoxy-phenyl)-4-methyl-3-piperazin-1-yl-benzenesulfonamide hydrochloride] was tested, and the Ki was less than 10 nM.

Same assay, conditions: membranes of HEK293 cells expressing h-5-HT6 receptor, 1 nM [3H]-LSD; read-out: Ki (5HT6)
In the case of Cc1ccc(S(=O)(=O)Nc2ccccc2OC(F)F)cc1N1CCN(C)CC1 [Example 5, N-(2-Difluoromethoxy-phenyl)-4-methyl-3-(4-methyl-piperazin-1-yl)-benzenesulfonamide hydrochloride], the Ki is reported as less than 50 nM. Molecule Cc1ccc(NS(=O)(=O)c2ccc(C)c(N3CCNCC3)c2)cc1OC(F)F [Example 6, N-(3-Difluoromethoxy-4-methyl-phenyl)-4-methyl-3-piperazin-1-yl-benzene-sulfonamide hydrochloride] has a Ki of less than 50 nM. Cc1ccc(S(=O)(=O)Nc2cccc3c2OC(F)(F)O3)cc1N1CCNCC1 [Example 8, N-(2,2-Difluoro-benzo[1,3]dioxol-4-yl)-4-methyl-3-piperazin-1-yl-benzenesulfonamide hydrochloride] was tested, and the Ki was less than 500 nM. With Cc1ccc(S(=O)(=O)N(CC2CC2)c2ccccc2OC(F)F)cc1N1CCNCC1 [Example 9, N-Cyclopropylmethyl-N-(2-difluoromethoxy-phenyl)-4-methyl-3-piperazin-1-yl-benzenesulfonamide hydrochloride] the Ki was less than 500 nM. Cc1ccc(S(=O)(=O)N(CC2CC2)c2cccc(OC(F)F)c2)cc1N1CCNCC1 [Example 10, N-Cyclopropylmethyl-N-(3-difluoromethoxy-phenyl)-4-methyl-3-piperazin-1-yl-benzenesulfonamide hydrochloride] showed a Ki of less than 50 nM. CCCN(c1ccccc1OC(F)F)S(=O)(=O)c1ccc(C)c(N2CCNCC2)c1 [Example 11, N-(2-Difluoromethoxy-phenyl)-4-methyl-3-piperazin-1-yl-N-propyl-benzene-sulfonamide hydrochloride] gave a Ki of less than 500 nM. With CCCN(c1cccc(OC(F)F)c1)S(=O)(=O)c1ccc(C)c(N2CCNCC2)c1 [Example 12, N-(3-Difluoromethoxy-phenyl)-4-methyl-3-piperazin-1-yl-N-propyl-benzenesulfonamide hydrochloride] the Ki was less than 50 nM. CCN(c1cccc(OC(F)F)c1)S(=O)(=O)c1ccc(C)c(N2CCNCC2)c1 [Example 13, N-(3-Difluoromethoxy-phenyl)-N-ethyl-4-methyl-3-piperazin-1-yl-benzene sulfonamide hydrochloride] gave a Ki of less than 50 nM. Cc1ccc(S(=O)(=O)N(C)c2cccc(OC(F)F)c2)cc1N1CCNCC1 [Example 14, N-(3-Difluoromethoxy-phenyl)-4,N-dimethyl-3-piperazin-1-yl-benzenesulfonamide hydrochloride] showed a Ki of less than 100 nM. Molecule CCN(c1ccccc1OC(F)F)S(=O)(=O)c1ccc(C)c(N2CCNCC2)c1 [Example 15, N-(2-Difluoromethoxy-phenyl)-N-ethyl-4-methyl-3-piperazin-1-yl-benzene sulfonamide hydrochloride] has a Ki of less than 500 nM. Cc1ccc(S(=O)(=O)N(C)c2ccccc2OC(F)F)cc1N1CCNCC1 [Example 16, N-(2-Difluoromethoxy-phenyl)-N-methyl-4-methyl-3-piperazin-1-yl-benzene sulfonamide hydrochloride] showed a Ki of less than 500 nM. Molecule COc1ccc(S(=O)(=O)Nc2ccc(C)c(OC(F)F)c2)cc1N1CCNCC1 [Example 18, N-(3-Difluoromethoxy-4-methyl-phenyl)-4-methoxy-3-piperazin-1-yl-benzene-sulfonamide hydrochloride] has a Ki of less than 10 nM. COc1ccc(S(=O)(=O)Nc2cccc(OC(F)F)c2)cc1N1CCNCC1 [Example 24, N-(3-Difluoromethoxy-phenyl)-4-methoxy-3-piperazin-1-yl-benzenesulfonamide hydrochloride] gave a Ki of less than 10 nM. Work on COc1ccc(NS(=O)(=O)c2ccc(OC)c(N3CCNCC3)c2)cc1OC(F)F [Example 25, N-(3-Difluoromethoxy-4-methoxy-phenyl)-4-methoxy-3-piperazin-1-yl-benzenesulfonamide hydrochloride] yielded a Ki of less than 10 nM. COc1ccc(S(=O)(=O)Nc2ccccc2OC(F)F)cc1N1CCNCC1 [Example 26, N-(2-Difluoromethoxy-phenyl)-4-methoxy-3-piperazin-1-yl-benzenesulfonamide hydrochloride] showed a Ki of less than 10 nM. Work on COc1ccc(S(=O)(=O)N(C)c2ccccc2OC(F)F)cc1N1CCNCC1 [Example 27, N-(2-Difluoromethoxy-phenyl)-4-methoxy-N-methyl-3-piperazin-1-yl-benzenesulfonamide hydrochloride] yielded a Ki of less than 50 nM. COc1ccc(N(C)S(=O)(=O)c2ccc(OC)c(N3CCNCC3)c2)cc1OC(F)F [Example 28, N-(3-Difluoromethoxy-4-methoxy-phenyl)-4-methoxy-N-methyl-3-piperazin-1-yl-benzenesulfonamide hydrochloride] gave a Ki of less than 50 nM. In the case of CCN(c1cccc(OC(F)F)c1)S(=O)(=O)c1ccc(OC)c(N2CCNCC2)c1 [Example 29, N-(3-Difluoromethoxy-phenyl)-N-ethyl-4-methoxy-3-piperazin-1-yl-benzenesulfonamide hydrochloride], the Ki is reported as less than 10 nM. In the case of CCN(c1ccc(OC)c(OC(F)F)c1)S(=O)(=O)c1ccc(OC)c(N2CCNCC2)c1 [Example 30, N-(3-Difluoromethoxy-4-methoxy-phenyl)-N-ethyl-4-methoxy-3-piperazin-1-yl-benzenesulfonamide hydrochloride], the Ki is reported as less than 10 nM. For CCN(c1ccccc1OC(F)F)S(=O)(=O)c1ccc(OC)c(N2CCNCC2)c1 [Example 31, N-(2-Difluoromethoxy-phenyl)-N-ethyl-4-methoxy-3-piperazin-1-yl-benzenesulfonamide hydrochloride], the Ki was less than 50 nM. COc1ccc(S(=O)(=O)N(C)c2cccc(OC(F)F)c2)cc1N1CCNCC1 [Example 32, N-(3-Difluoromethoxy-phenyl)-4-methoxy-N-methyl-3-piperazin-1-yl-benzenesulfonamide hydrochloride] showed a Ki of less than 10 nM. With CCCN(c1ccc(OC)c(OC(F)F)c1)S(=O)(=O)c1ccc(OC)c(N2CCNCC2)c1 [Example 33, N-(3-Difluoromethoxy-4-methoxy-phenyl)-4-methoxy-3-piperazin-1-yl-N-propyl-benzenesulfonamide hydrochloride] the Ki was less than 10 nM. Work on CCCN(c1cccc(OC(F)F)c1)S(=O)(=O)c1ccc(OC)c(N2CCNCC2)c1 [Example 34, N-(3-Difluoromethoxy-phenyl)-4-methoxy-3-piperazin-1-yl-N-propyl-benzenesulfonamide hydrochloride] yielded a Ki of less than 10 nM. Work on COc1ccc(S(=O)(=O)Nc2cccc(OC(F)F)c2)cc1N1CCN(C)CC1 [Example 35, N-(3-Difluoromethoxy-phenyl)-4-methoxy-3-(4-methyl-piperazin-1-yl)-benzenesulfonamide hydrochloride] yielded a Ki of less than 10 nM. For CCCN(c1ccccc1OC(F)F)S(=O)(=O)c1ccc(OC)c(N2CCNCC2)c1 [Example 36, N-(2-Difluoromethoxy-phenyl)-4-methoxy-3-piperazin-1-yl-N-propyl-benzenesulfonamide hydrochloride], the Ki was less than 10 nM.
